In general, IC50 refers to the midpoint of a concentration-inhibition curve.

In this test the target is T1, calf spleen adenosine deaminase (Bos taurus, UniProt P56658).
T1 construct: The calf spleen adenosine deaminase (Specific Activity of 178 Units/mg protein) is purchased from Sigma Chemical Company; purchased Sigma Chemical Company, St Louis, Mo; host or cells: calf spleen (tissue-derived enzyme)
T1 sequence (P56658 1-363): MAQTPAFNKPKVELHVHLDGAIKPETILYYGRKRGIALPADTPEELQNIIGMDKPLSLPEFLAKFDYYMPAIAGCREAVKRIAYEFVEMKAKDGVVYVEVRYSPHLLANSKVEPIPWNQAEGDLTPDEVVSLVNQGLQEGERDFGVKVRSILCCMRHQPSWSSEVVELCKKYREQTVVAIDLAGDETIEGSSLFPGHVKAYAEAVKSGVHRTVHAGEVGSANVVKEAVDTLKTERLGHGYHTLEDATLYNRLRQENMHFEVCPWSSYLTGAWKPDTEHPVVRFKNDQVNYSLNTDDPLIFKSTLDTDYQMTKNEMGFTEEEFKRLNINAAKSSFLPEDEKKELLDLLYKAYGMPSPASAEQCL
The experiment in a line: Adenosine Deaminase (ADA) Assay, spectrophotometric at 265 nm. Particulars: Tris-HCl buffer 50 mM, pH 7.5, 25° C., adenosine substrate; dose-response (FIGS. 1 and 2); read-out: IC50, amount of the product per ml of the reaction mixture producing the enzyme inhibition by 50% (converted). Format: biochemical. The protocol:
The enzyme catalyzes the following reaction:
Adenosine+H2O→Inosine+NH3
The calf spleen adenosine deaminase (Specific Activity of 178 Units/mg protein) is purchased from Sigma Chemical Company, St Louis, Mo. The enzyme assay is carried out spectrophotometrically at 265 nm. The reaction mixture (in a 1-ml cuvette; diameter=1.0 cm) contains 0.9 ml of buffer (Tris-HCL buffer, 50 mM, pH 7.5), 25 μl of adenosine (2 mM), plus the enzyme, water and the extract to make 1 ml. The enzyme is added to start the reaction, and a decrease in absorbency at 265 nm is followed at 25° C. One unit of ADA activity is the amount of the enzyme that catalyzes 1 μmole of adenosine/min/ml of the reaction mixture.
The IC50 values have been determined by examining the dose-response effects of both products. The IC50 values represent the amount of the product per ml of the reaction mixture, producing the enzyme inhibition by 50%. In the enzyme assay, first a background reading is recorded on the chart for 1-2 min, followed by the addition of an appropriate amount of the enzyme to start the reaction, which is monitored spectrophotometrically.

Consider `Oc1ccc(/C=C/c2cc(O)cc(O)c2)cc1` [resveratrol, 3,5,4′-trihydroxystilbene], for which the IC50 is 50.8 µM.

Values taken from patent publication US20110021640A1 (priority 2009, published 2011).
